This note sets out measurements from US12582722B2, “Bifunctional compounds for degrading BTK via ubiquitin proteosome pathway” (NURIX THERAPEUTICS, INC., priority 2019, dated 2026).

For orientation: DC50 means the concentration at which degradation of the target reaches its halfway point. Read a high DC50 as degradation only at high concentration.

For this test, the target named is T1, BTK (Homo sapiens, UniProt Q06187).
T1 construct: endogenous in cells; host or cells: Ramos (ATCC CRL-1596)
As to the kind of experiment: Cellular BTK HTRF Assay (BTK degradation in Ramos cells). It counts as cell-based. The conditions noted are these: four hours incubation, 37° C., BTK levels relative to DMSO-treated cells. The procedure:
Ramos (CRL-1596) cells were obtained from American Type Culture Collection and were grown in RPMI-1640 media (ATCC, 30-2001) supplemented with 10% heat-inactivated FBS (Corning Premium Fetal Bovine Serum from Fisher, MT35015CV).
Compounds of the present invention were added to 50,000 Ramos cells in round-bottom 96 well plates with a final DMSO concentration of […] and were incubated at 37° C., 5% CO2 for four hours. BTK levels were determined using Cisbio Total-BTK HTRF ([…] Time-Resolved Fluorescence) kit (63ADK064PEG) according to manufacturer's protocol. Briefly, cells were incubated in 1× supplied lysis buffer for 30 minutes. In an opaque white low volume 96 well plate (Cisbio, 66PL96005), cell lysate was combined with two different specific BTK antibodies, one conjugated with Eu^3+-Cryptate FRET donor and one conjugated with d2 FRET acceptor. Assay controls include wells containing cell lysate with only the Eu^3+-Cryptate FRET donor antibody and wells containing both HTRF antibodies and lysis buffer without cells or control lysate provided by Cisbio. HTRF ratio was calculated as (acceptor signal at 665 nm/donor signal at 620 nm)×10^4. Background HTRF levels were determined from the control well containing the donor, but no acceptor, antibody. Background HTRF levels were subtracted from all samples. Readouts were reported as HTRF levels relative to HTRF levels of DMSO-treated cells. Four-parameter non-linear regressions were performed in GraphPad Prism 7.02 to obtain DC50 values. DC50 values are provided in Table 3, wherein A<7.5 nM, 7.5 nM≤B≤50 nM, and 50 nM<C<500 nM.
A general note: TR-FRET usually uses a lanthanide donor and a delayed reading to cut background.

The structures appear in SMILES notation.

T1 sequence (Q06187 whole entry): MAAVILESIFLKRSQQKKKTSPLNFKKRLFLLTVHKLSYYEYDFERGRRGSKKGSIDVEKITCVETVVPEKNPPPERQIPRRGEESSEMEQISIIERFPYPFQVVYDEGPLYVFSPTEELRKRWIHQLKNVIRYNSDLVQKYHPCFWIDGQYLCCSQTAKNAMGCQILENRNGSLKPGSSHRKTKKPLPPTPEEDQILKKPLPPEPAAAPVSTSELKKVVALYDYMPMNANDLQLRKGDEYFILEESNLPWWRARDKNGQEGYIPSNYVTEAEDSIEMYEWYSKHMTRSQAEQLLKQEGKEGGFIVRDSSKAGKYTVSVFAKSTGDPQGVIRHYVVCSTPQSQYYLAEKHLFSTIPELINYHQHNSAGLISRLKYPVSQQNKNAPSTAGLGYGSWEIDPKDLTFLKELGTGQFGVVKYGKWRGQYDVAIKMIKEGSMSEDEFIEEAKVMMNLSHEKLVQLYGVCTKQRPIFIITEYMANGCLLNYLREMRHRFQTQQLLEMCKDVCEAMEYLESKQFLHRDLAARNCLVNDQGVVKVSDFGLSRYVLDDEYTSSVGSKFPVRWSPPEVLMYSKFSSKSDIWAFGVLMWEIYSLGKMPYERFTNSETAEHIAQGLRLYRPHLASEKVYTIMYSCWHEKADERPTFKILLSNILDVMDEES

In the case of `Cc1cc(Nc2nc(N3CCC[C@@H](NC(=O)C4CCN(CC5CN(c6ccc7c(c6)C(=O)N(C6CCC(=O)NC6=O)C7=O)C5)CC4)C3)cnc2C(N)=O)sn1` (stereo partly drawn) [Compound 17, 5-[(3R)-3-[1-({1-[2-(2,6-dioxopiperidin-3-yl)-1,3-dioxoisoindol-5-yl]azetidin-3-yl}methyl)piperidine-4-amido]piperidin-1-yl]-3-[(3-methyl-1,2-thiazol-5-yl)amino]pyrazine-2-carboxamide], the DC50 is < 7.5 nM.
Under `CS(=O)(=O)c1ccc(Nc2nc(N3CCC[C@@H](NC(=O)OCCCCCCCOc4ccc5c(c4)C(=O)N(C4CCC(=O)NC4=O)C5=O)C3)cnc2C(N)=O)cc1` (stereo partly drawn) [Compound 3, 7-((2-(2,6-dioxopiperidin-3-yl)-1,3-dioxoisoindolin-5-yl)oxy)heptyl ((R)-1-(5-carbamoyl-6-((4-(methylsulfonyl)phenyl)amino)pyrazin-2-yl)piperidin-3-yl)carbamate] stands 7.5 to 50 nM.
`CS(=O)(=O)c1ccc(Nc2nc(N3CCC[C@@H](NC(=O)[C@H]4[C@@H]5CN(C6CCN(c7ccc8c(c7)C(=O)N(C7CCC(=O)NC7=O)C8=O)CC6)C[C@@H]54)C3)cnc2C(N)=O)cc1` (stereo partly drawn) [Compound 35, (1R,5S,6r)-N—((R)-1-(5-carbamoyl-6-((4-(methylsulfonyl)phenyl)amino)pyrazin-2-yl)piperidin-3-yl)-3-(1-(2-(2,6-dioxopiperidin-3-yl)-1,3-dioxoisoindolin-5-yl)piperidin-4-yl)-3-azabicyclo[3.1.0]hexane-6-carboxamide] displayed a DC50 of 7.5 to 50 nM.
Consider `Cn1cc(Nc2nc(N3CCC[C@@H](N4CCC5(CCN(C6CCN(c7ccc8c(c7)C(=O)N(C7CCC(=O)NC7=O)C8=O)CC6)CC5)C4=O)C3)cnc2C(N)=O)cn1` (stereo partly drawn) [Compound 49, 5-[(3R)-3-(8-{1-[2-(2,6-dioxopiperidin-3-yl)-1,3-dioxoisoindol-5-yl]piperidin-4-yl}-1-oxo-2,8-diazaspiro[4.5]decan-2-yl)piperidin-1-yl]-3-[(1-methylpyrazol-4-yl)amino]pyrazine-2-carboxamide], for which the DC50 was < 7.5 nM.
Under `CS(=O)(=O)c1ccc(Nc2nc(N3CCC[C@@H](NC(=O)N4CCC5(CC4)CN(c4ccc6c(c4)C(=O)N(C4CCC(=O)NC4=O)C6=O)C5)C3)cnc2C(N)=O)cc1` (stereo partly drawn) [Compound 28, N—((R)-1-(5-carbamoyl-6-((4-(methylsulfonyl)phenyl)amino)pyrazine-2-yl)piperidin-3-yl)-2-(2-(2,6-dioxopiperidin-3-yl)-1,3-dioxoisoindolin-5-yl)-2,7-diazaspiro[3.5]nonane-7-carboxamide] stands 7.5 to 50 nM; under `CS(=O)(=O)c1ccc(Nc2nc(N3CCC[C@@H](NC(=O)OC[C@@H]4CCN(c5ccc6c(c5)C(=O)N(C5CCC(=O)NC5=O)C6=O)C4)C3)cnc2C(N)=O)cc1` (stereo partly drawn) [Compound 9, ((3R)-1-(2-(2,6-dioxopiperidin-3-yl)-1,3-dioxoisoindolin-5-yl)pyrrolidin-3-yl)methyl ((R)-1-(5-carbamoyl-6-((4-(methylsulfonyl)phenyl)amino)pyrazin-2-yl)piperidin-3-yl)carbamate], 50 to 500 nM.
The figure for `Cn1cc(Nc2nc(N3CCC[C@@H](N4CC5(CN(CC6CN(c7ccc8c(c7)C(=O)N(C7CCC(=O)NC7=O)C8=O)C6)C5)OC4=O)C3)cnc2C(N)=O)cn1` (stereo partly drawn) [Compound 42, 5-((3R)-3-(2-((1-(2-(2,6-dioxopiperidin-3-yl)-1,3-dioxoisoindolin-5-yl)azetidin-3-yl)methyl)-6-oxo-5-oxa-2,7-diazaspiro[3.4]octan-7-yl)piperidin-1-yl)-3-((1-methyl-1H-pyrazol-4-yl)amino)pyrazine-2-carboxamide] is < 7.5 nM; for `Cc1cc(Nc2nc(N3CCC[C@@H](NC(=O)N4CCC5(CC4)CCN(c4ccc6c(c4)C(=O)N(C4CCC(=O)NC4=O)C6=O)CC5)C3)cnc2C(N)=O)sn1` (stereo partly drawn) [Compound 12, N-[(3R)-1-{5-carbamoyl-6-[(3-methyl-1,2-thiazol-5-yl)amino]pyrazin-2-yl}piperidin-3-yl]-9-[2-(2,6-dioxopiperidin-3-yl)-1,3-dioxoisoindol-5-yl]-3,9-diazaspiro[5.5]undecane-3-carboxamide] it is 7.5 to 50 nM.
